From patent publication US20060099157A1, “Ether alcohols used as solvents and emulsifiers and dispersions containing said ether alcohols” (IFAC GmbH & Co. KG, priority 2002, published 2006)

How the values were obtained:
[1] = Solution in polyethylene glycol monomethyl ether (7 EO); assay type: physicochemical; details: dissolved in polyethylene glycol monomethyl ether (7 EO), room temperature, based on the total solution
Text: A solution was accessible which, based on the total solution, comprised 60% by weight of the light protection agent.
The light protection agent 2-hydroxy-4-methoxybenzophenone (benzophenone-3) could be dissolved at room temperature in polyethylene glycol monomethyl ether (7 EO), the fraction of light protection agent in the solution being more than 30% by weight.
2-Hydroxy-4-methoxybenzophenone-5-sulfonic acid could be dissolved in polyethylene glycol monomethyl ether (7 EO), the resulting solution comprising more than 10% by weight of the light protection agent. The per se water-soluble light protection agent could be introduced into an oil phase as polyethylene glycol monomethyl ether (7 EO) solution so that it could be used in this formulation as oil-soluble light protection filter.
(§1) Salicylic acid was dissolved at room temperature in polyethylene glycol monomethyl ether (7 EO). A solution was accessible which comprised more than 10% by weight of salicylic acid in the acid form. The solution could be introduced in any fractions into C12-C15-alcohol benzoate without resulting in precipitation of the salicylic acid.

[2] = Mixing of the ether alcohol solution into C12-C15-alcohol benzoate, stability of the resulting system; assay type: physicochemical; details: for miscibility of the solution with C12-C15-alcohol benzoate: solution in polyethylene glycol monomethyl ether (7 EO)
Procedure: At room temperature (25° C.), a storage time of more than 7 days was determined without resulting in flocculation or phase separation.
as §1

[3] = cited from earlier work

SMILES: CCCCC(CC)COC(=O)c1ccc(Nc2nc(Nc3ccc(C(=O)OCC(CC)CCCC)cc3)nc(Nc3ccc(C(=O)OCC(CC)CCCC)cc3)n2)cc1 (centres unmarked) [2,4,6-trianilino-p-(carbo-2′-ethylhexyl-1′-oxy)-1,3,5-triazine]
- fraction of the compound in the accessible solution [1]: 60 % by weight
- storage time without flocculation or phase separation ([2]; 60% strength solution in C12-C15-alcohol benzoate, room temperature (25° C.)): more than 7 days
- miscibility of the solution with C12-C15-alcohol benzoate [2]: any mixing ratios

SMILES: COc1cc(O)c(C(=O)c2ccccc2)cc1S(=O)(=O)O [2-Hydroxy-4-methoxybenzophenone-5-sulfonic acid]
- fraction of the compound in the accessible solution [1]: more than 10 % by weight

SMILES: COc1ccc(C(=O)c2ccccc2)c(O)c1 [2-hydroxy-4-methoxybenzophenone]
- fraction of the compound in the accessible solution [1]: more than 30 % by weight
- fraction of light protection agent in solutions hitherto accessible [3]: at most 20 % by weight

SMILES: O=C(O)c1ccccc1O [Salicylic acid, reference compound]
- fraction of the compound in the accessible solution [1]: more than 10 % by weight
- miscibility of the solution with C12-C15-alcohol benzoate [2]: any fractions
